In brackets after ≈: the same amount, converted by molar mass.
Key:
[1] = system: superoxide radicals (O2^-) released from peritoneal macrophage cells of guinea pig; test: Inhibitory effect against superoxide radicals released from peritoneal macrophage cells of guinea pig by stimulation (FMLP), cytochrome C reduction; assay type: cell-based; conditions: Cavia porcellus, Peritoneal macrophage cell; guinea pig peritoneal macrophages 2×10^6 cells/ml; FMLP 10^-7 M; 37° C.; OD550; read-out: IC50 (superoxide radical release)
Experimental: Inhibitory effect against superoxide radicals released from the peritoneal macrophage cells of guinea pig by stimulation:
Mineral oil (15 ml) was intraperitoneally administered to a guinea pig, then 96 hours after the administration, the peritoneal macrophage cells were sampled.
Superoxide radicals (O2^-) were determined by means of reduction of cytochrome C method according to the procedure described in an article written by T. Matsumoto, K. Takeshige and S. Minakami: Biochemical and Biophysical Research Communications, Vol. 88, No. 3, pp. 974-979, (1979).
The peritoneal macrophage cells were added to make the final concentration of 2×10^6 cells/ml into ml of 80 μM-cytochrome C solution, and the test compound of pyrazine derivative of the present invention was added thereto to make the test group sample. On the other hand, water was added in place of the test compound of the present invention to make the control group sample. Each of the test group sample and the control group sample was subjected to pre-incubation at 37° C. for 1 minute.
As to the stimulating agent for releasing superoxide radicals (O2^-), FMLP (formylmethionyl leucyl phenylalanine) was added to make the final concentration thereof to 10^-7 M, to each of the test group sample and the control group sample. Then both samples were subjected to additional reaction by incubation for 1 minute.
Difference of the optical absorbances measured at 550 nm (OD550) of both test group and control group samples were determined, and the 50% inhibitory concentration (IC50) was obtained by calculating as the ratio of OD550 of the test group sample to that of the control group sample.

[2] = system: releasing of hydrogen peroxide (H2O2) from the neutrocytes of rat abdominal cavity; test: Inhibitory effect against the releasing of hydrogen peroxide (H2O2) from the neutrocytes of rat abdominal cavity; assay type: cell-based, SD-strain rat; conditions: rat neutrocytes 10^6 cells/ml; FMLP 2×10^-6 M; 37° C., 1 hour; OD510
Experimental: Inhibitory effect against the releasing of hydrogen peroxide (H2 O2) from the neutrocytes of rat abdominal cavity
1) 1%-Casein solution was administered to the adbominal cavity of a SD-strain rat, then 16 hours after the administration, the neutrocytes were obtained by washing the abdominal cavity. Thus obtained neutrocytes were washed with Hank's solution.
2) The formulation of the reaction mixture(*) was as follows: […]
______________________________________
Rat neutrocytes 10^6 cells/ml
Text compound was added to the reaction mixture, then the whole mixture was incubated at 37° C. for 1 hour.
3) Next, the reacted mixture was subjected to centrifugal separation at 2,000 rpm for 10 minutes, then ml of the supernatant liquor was taken as a sample and microliters of 1N-NaOH solution was added thereto.
4) The optical absorbance at 510 nm (OD510) was determined by means of using a spectrophotometer. The 50% inhibitory concentration was obtained by calculating as the ratio of OD510 of the test group sample to that of the control group sample.

[3] = system: releasing of lysosome from the neutrocytes of rat; test: Inhibitory effect against the releasing of lysosome from the neutrocytes of rat; assay type: cell-based; conditions: rat neutrocytes 5×10^5 cells/ml; 10^-6 M FMLP and 5 μg/ml cytochalasin B; OD540
Experimental: Inhibitory effect against the releasing of lysosome from the neutrocytes of rat
The neutrocytes of rat were sampled from the abdominal cavity of the rat 16 hours after the administration of 10 ml of 1%-casein solution (physiological saline solution).
Reaction of the releasing of lysosome from the neutrocytes of rat was determined by means of the method as described in an article written by T. Matsumoto, K. Takeshige and S. Minakami: Biochemical and Biophysical Research Communications, Vol. 88, No. 3, pp. 974-979, (1979).
The neutrocytes being sampled were added to Hank's solution so as to make the concentration thereof as 5×10^5 cells/ml, and the test compound of pyrazine derivative of the present invention was added thereto to make the test group sample. On the other hand, water as added in place of the pyrazine derivative of the present invention to make the control group sample. Each of the test group sample and the control group sample was subjected to pre-incubation at 37° C. for 1 minute.
As to the stimulating agents, 10^-6 M of FMLP (formylmethionyl leucyl phenylalanine) and 5 μg/ml of cytochalasin B were added to the solution. […] After the reaction, 1N-NaOH solution was added to the reaction mixture so as to make the pH value thereof to pH 8 to 9, and the optical absorbance of both test group samples and control group samples were determined at 540 nm (OD540). […]

| IC50 [2] [µg/mL] | IC50 [3] [µg/mL] | SMILES | IC50 [1] [µg/mL] |
| --- | --- | --- | --- |
|  |  | COc1cccc(NC(=O)c2[nH]c(=O)c(CC(C)C)[n+]([O-])c2OC)c1 [Example 2] | 40 (≈ 115 µM) |
|  |  | COc1c(C(=O)Nc2cccc(SC)c2)[nH]c(=O)c(CC(C)C)[n+]1[O-] [Example 3] | 20 (≈ 55 µM) |
|  |  | COc1c(C(=O)Nc2ccc3c(c2)OCO3)[nH]c(=O)c(CC(C)C)[n+]1[O-] [Example 4] | 56 (≈ 155 µM) |
| 60 (≈ 135 µM) |  | COc1c(C(=O)Nc2cc(C(C)(C)C)c(O)c(C(C)(C)C)c2)[nH]c(=O)c(CC(C)C)[n+]1[O-] [Example 5] | 17 (≈ 38.2 µM) |
|  | 20 | COc1c(C(=O)Nc2ccccc2-c2ccccc2)[nH]c(=O)c(CC(C)C)[n+]1[O-] [Example 6] | 3 (≈ 7.62 µM) |
|  | 16 | COc1c(C(=O)Nc2nc3ccccc3s2)[nH]c(=O)c(CC(C)C)[n+]1[O-] [Example 7] | 18 (≈ 48.1 µM) |
|  |  | COc1ccc2nc(NC(=O)c3[nH]c(=O)c(CC(C)C)[n+]([O-])c3OC)sc2c1 [Example 8] | 10 (≈ 24.7 µM) |
|  |  | COc1cccc(CNC(=O)c2[nH]c(=O)c(CC(C)C)[n+]([O-])c2OC)c1 [Test compound 1, 3-Isobutyl-5-methoxy-6-[N-(3-methoxybenzyl)]-carbamoyl-1,2-dihydropyrazin-2-one 4-oxide] | 30 (≈ 83 µM) |

Source: patent US5459142A, “Pyrazinyl and piperazinyl substituted pyrazine compounds” (Otsuka Pharmaceutical Co., Ltd., priority 1991, dated 1995)
